According to patent US7700593B2, “Imidazo- and triazolo-pyridine compounds and methods of use thereof” (Amgen Inc., priority 2006, dated 2010):
pIC50: −log10 of the molar value.

How the values were obtained:
monocytes = test: Lipopolysaccharide-activated monocyte TNF production assay (LPS induced TNF release); assay type: cell-based, human; conditions: Homo sapiens, Monocyte; LPS induced TNF release from monocytes; read-out: LPS induced TNFa
In short: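 Adherent monocytes from human PBMCs were pretreated with compound 60 min, then stimulated with E. coli LPS (30 ng/mL stock added) for 4 h at 37 °C. Supernatant TNF-α measured by sandwich ELISA; concentration giving 50% TNF reduction derived by polynomial fit.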

THP1 cells = test: Lipopolysaccharide-activated THP1 cell TNF production assay; assay type: cell-based, human; conditions: Homo sapiens, THP-1; LPS-induced TNF-α production in THP1 cells
In short: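 THP1 cells at 1E6/mL were stimulated with LPS (1 μg/mL prepared stock) alongside 3-fold serially diluted compound for 3 h at 37 °C. Secreted TNF-α was quantified by electrochemiluminescence sandwich immunoassay. Percent of DMSO control was fitted to a 4-parameter logistic equation.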

p38α = p38α (Homo sapiens, UniProt Q16539); test: p38 in-vitro HTRF enzyme assay; assay type: biochemical; conditions: IC50 value ranges
In short: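 Activated recombinant human p38α with ATP and 100 nM GST-ATF2-Avitag, 1 h at RT in Tris pH 7.5/MgCl2 buffer; compound 10-point 3-fold series from about 1 μM final. HTRF 665/620 nm ratio; IC50 from 4-parameter fit, Ki via Cheng-Prusoff with experimental ATP Km.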

p38α, sequence (Q16539 whole entry): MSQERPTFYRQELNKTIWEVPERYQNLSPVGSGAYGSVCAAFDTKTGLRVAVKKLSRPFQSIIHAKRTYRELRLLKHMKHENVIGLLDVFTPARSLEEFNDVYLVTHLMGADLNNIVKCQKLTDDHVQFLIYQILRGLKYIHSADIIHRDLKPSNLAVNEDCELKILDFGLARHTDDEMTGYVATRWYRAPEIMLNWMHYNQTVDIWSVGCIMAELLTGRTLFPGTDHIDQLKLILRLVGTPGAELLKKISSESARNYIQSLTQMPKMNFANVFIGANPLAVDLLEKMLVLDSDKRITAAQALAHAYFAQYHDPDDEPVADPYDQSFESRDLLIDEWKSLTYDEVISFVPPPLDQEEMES

SMILES | pIC50 (monocytes) | pIC50 (THP1 cells) | pIC50 (p38α)
Cc1ccc(C(=O)Nc2ccnn2C)cc1-c1ccn2c(C(C)C)nnc2c1 [Example 28, 4-methyl-3-(3-(1-methylethyl)[1,2,4]triazolo[4,3-a]pyridin-7-yl)-N-(1-methyl-1H-pyrazol-5-yl)benzamide] | 6.60 to 7.00 | 6.60 to 7.00 | > 7.60
Cc1ccc(C(=O)NC2CC2)cc1-c1ccn2c(-c3cccnc3)nnc2c1 [Example 29, N-cyclopropyl-4-methyl-3-(3-(3-pyridinyl)[1,2,4]triazolo[4,3-a]pyridin-7-yl)benzamide] | 6.60 to 7.00 | 6.60 to 7.00 | 6.60 to 7.00
Cc1ccc(C(=O)Nc2ccnn2C)cc1-c1ccn2c(-c3ccccc3F)nnc2c1 [Example 30, 3-(3-(2-fluorophenyl)[1,2,4]triazolo[4,3-a]pyridin-7-yl)-4-methyl-N-(1-methyl-1H-pyrazol-5-yl)benzamide] | 7.00 to 7.60 | 7.00 to 7.60 | > 7.60
Cc1ccc(C(=O)NC2CC2)cc1-c1ccn2c(CC(F)(F)F)nnc2c1 [Example 31, N-cyclopropyl-4-methyl-3-(3-(2,2,2-trifluoroethyl)[1,2,4]triazolo[4,3-a]pyridin-7-yl)benzamide] | 6.00 to 6.60 | 6.60 to 7.00 | 7.00 to 7.60
Cc1ccc(C(=O)NC2CC2)cc1-c1ccn2c(-c3ccccc3C)nnc2c1 [Example 32, N-cyclopropyl-4-methyl-3-(3-(2-methylphenyl)[1,2,4]triazolo[4,3-a]pyridin-7-yl)benzamide] | 6.60 to 7.00 | 7.00 to 7.60 | > 7.60
Cc1ccc(C(=O)Nc2ccnn2C)cc1-c1ccn2c(-c3cccnc3C)nnc2c1 [Example 33, 4-methyl-N-(1-methyl-1H-pyrazol-5-yl)-3-(3-(2-methyl-3-pyridinyl)[1,2,4]triazolo[4,3-a]pyridin-7-yl)benzamide] | 6.00 to 6.60 | 6.60 to 7.00 | 7.00 to 7.60
Cc1ccc(C(=O)NC2CC2)cc1-c1ccn2c(-c3cccnc3C)nnc2c1 [Example 34, N-cyclopropyl-4-methyl-3-(3-(2-methyl-3-pyridinyl)[1,2,4]triazolo[4,3-a]pyridin-7-yl)benzamide] | 6.60 to 7.00 | 7.00 to 7.60 | 7.00 to 7.60
Cc1ccc(C(=O)NC2CC2)cc1-c1cc2nnc(-c3ccccc3Cl)n2cc1C [Example 35, 3-(3-(2-chlorophenyl)-6-methyl[1,2,4]triazolo[4,3-a]pyridin-7-yl)-N-cyclopropyl-4-methylbenzamide] | 7.00 to 7.60 | > 7.60 | > 7.60
Cc1ccc(C(=O)Nc2ccnn2C)cc1-c1cc2nnc(-c3ccccc3Cl)n2cc1C [Example 36, 3-(3-(2-chlorophenyl)-6-methyl[1,2,4]triazolo[4,3-a]pyridin-7-yl)-4-methyl-N-(1-methyl-1H-pyrazol-5-yl)benzamide] | 7.00 to 7.60 | > 7.60 | > 7.60
Cc1ccc(C(=O)NC2CC2)cc1-c1ccn2c(-c3ccccc3)nnc2c1 [Example 37, N-cyclopropyl-4-methyl-3-(3-phenyl[1,2,4]triazolo[4,3-a]pyridin-7-yl)benzamide] | 6.00 to 6.60 | 6.60 to 7.00 | > 7.60
Cc1ccc(C(=O)NC2CC2)cc1-c1ccn2c(-c3cccc(F)c3Cl)nnc2c1 [Example 39, 3-(3-(2-chloro-3-fluorophenyl)[1,2,4]triazolo[4,3-a]pyridin-7-yl)-N-cyclopropyl-4-methylbenzamide] | 6.60 to 7.00 | 7.00 to 7.60 | > 7.60
CNC(=O)c1ccc(C)c(-c2ccn3c(-c4ccccc4Cl)nnc3c2)c1 [Example 40, 3-(3-(2-chlorophenyl)[1,2,4]triazolo[4,3-a]pyridin-7-yl)-N,4-dimethylbenzamide] | 6.60 to 7.00 | 7.00 to 7.60 | 7.00 to 7.60
Cc1ccc(C(=O)Nc2ccnn2C)cc1-c1ccn2c(-c3cccc(F)c3Cl)nnc2c1 [Example 41, 3-(3-(2-chloro-3-fluorophenyl)[1,2,4]triazolo[4,3-a]pyridin-7-yl)-4-methyl-N-(1-methyl-1H-pyrazol-5-yl)benzamide] | 7.00 to 7.60 | > 7.60 | > 7.60
Cc1ccc(C(=O)NC2CC2)cc1-c1ccn2c(-c3ccc(F)cc3Cl)nnc2c1 [Example 42, 3-(3-(2-chloro-4-fluorophenyl)[1,2,4]triazolo[4,3-a]pyridin-7-yl)-N-cyclopropyl-4-methylbenzamide] | 6.60 to 7.00 | 7.00 to 7.60 | > 7.60
Cc1ccc(C(=O)NC(C)C)cc1-c1ccn2c(-c3ccccc3Cl)nnc2c1 [Example 43, 3-(3-(2-chlorophenyl)[1,2,4]triazolo[4,3-a]pyridin-7-yl)-4-methyl-N-(1-methylethyl)benzamide] | 6.00 to 6.60 | 6.60 to 7.00 | 7.00 to 7.60
Cc1ccc(C(N)=O)cc1-c1ccn2c(-c3ccccc3Cl)nnc2c1 [Example 44, 3-(3-(2-chlorophenyl)[1,2,4]triazolo[4,3-a]pyridin-7-yl)-4-methylbenzamide] | 6.60 to 7.00 | 7.00 to 7.60 | > 7.60
Cc1ccc(C(=O)Nc2ccnn2C)cc1-c1ccn2c(-c3ccc(F)cc3Cl)nnc2c1 [Example 45, 3-(3-(2-chloro-4-fluorophenyl)[1,2,4]triazolo[4,3-a]pyridin-7-yl)-4-methyl-N-(1-methyl-1H-pyrazol-5-yl)benzamide] | 6.60 to 7.00 | > 7.60 | > 7.60

Other lines, results leading:

pIC50 (monocytes) | pIC50 (THP1 cells) | pIC50 (p38α) | SMILES
7.00 to 7.60 | > 7.60 | > 7.60 | Cc1ccc(C(=O)NC2CC2)cc1-c1ccn2c(-c3cc(F)ccc3Cl)nnc2c1 [Example 46, 3-(3-(2-chloro-5-fluorophenyl)[1,2,4]triazolo[4,3-a]pyridin-7-yl)-N-cyclopropyl-4-methylbenzamide]
7.00 to 7.60 | > 7.60 | > 7.60 | Cc1ccc(C(=O)Nc2ccnn2C)cc1-c1ccn2c(-c3cc(F)ccc3Cl)nnc2c1 [Example 47, 3-(3-(2-chloro-5-fluorophenyl)[1,2,4]triazolo[4,3-a]pyridin-7-yl)-4-methyl-N-(1-methyl-1H-pyrazol-5-yl)benzamide]
6.60 to 7.00 | 6.60 to 7.00 | > 7.60 | Cc1ccc(C(=O)NC2CC2)cc1-c1ccn2c(-c3cc(F)c(F)cc3Cl)nnc2c1 [Example 48, 3-(3-(2-chloro-4,5-difluorophenyl)[1,2,4]triazolo[4,3-a]pyridin-7-yl)-N-cyclopropyl-4-methylbenzamide]
7.00 to 7.60 | 7.00 to 7.60 | > 7.60 | Cc1ccc(C(=O)Nc2ccnn2C)cc1-c1ccn2c(-c3cc(F)c(F)cc3Cl)nnc2c1 [Example 49, 3-(3-(2-chloro-4,5-difluorophenyl)[1,2,4]triazolo[4,3-a]pyridin-7-yl)-4-methyl-N-(1-methyl-1H-pyrazol-5-yl)benzamide]
> 7.60 | > 7.60 | > 7.60 | Cc1c(F)cc(C(=O)NC2CC2)cc1-c1ccn2c(C(C)(C)C)nnc2c1 [Example 50, N-cyclopropyl-3-(3-(1,1-dimethylethyl)[1,2,4]triazolo[4,3-a]pyridin-7-yl)-5-fluoro-4-methylbenzamide]
7.00 to 7.60 | > 7.60 | > 7.60 | Cc1c(F)cc(C(=O)NC2CC2)cc1-c1ccn2c(-c3ccccc3Cl)nnc2c1 [Example 51, 3-(3-(2-chlorophenyl)[1,2,4]triazolo[4,3-a]pyridin-7-yl)-N-cyclopropyl-5-fluoro-4-methylbenzamide]
6.60 to 7.00 | 6.60 to 7.00 | > 7.60 | CCNC(=O)c1ccc(C)c(-c2ccn3c(-c4ccccc4Cl)nnc3c2)c1 [Example 52, 3-(3-(2-chlorophenyl)[1,2,4]triazolo[4,3-a]pyridin-7-yl)-N-ethyl-4-methylbenzamide]
7.00 to 7.60 | 7.00 to 7.60 | > 7.60 | Cc1ccc(C(=O)NC2CC2)cc1-c1ccn2c(-c3sccc3C)nnc2c1 [Example 53, N-cyclopropyl-4-methyl-3-(3-(3-methyl-2-thienyl)[1,2,4]triazolo[4,3-a]pyridin-7-yl)benzamide]
7.00 to 7.60 | > 7.60 | > 7.60 | Cc1ccc(C(=O)Nc2ccnn2C)cc1-c1ccn2c(-c3sccc3C)nnc2c1 [Example 54, 4-methyl-N-(1-methyl-1H-pyrazol-5-yl)-3-(3-(3-methyl-2-thienyl)[1,2,4]triazolo[4,3-a]pyridin-7-yl)benzamide]
7.00 to 7.60 | > 7.60 | > 7.60 | Cc1ccc(C(=O)NC2CC2)cc1-c1ccn2c(-c3sccc3Cl)nnc2c1 [Example 55, 3-(3-(3-chloro-2-thienyl)[1,2,4]triazolo[4,3-a]pyridin-7-yl)-N-cyclopropyl-4-methylbenzamide]
> 7.60 | > 7.60 | > 7.60 | Cc1c(F)cc(C(=O)NC2CC2)cc1-c1ccn2c(-c3c(F)cccc3Cl)nnc2c1 [Example 56, 3-(3-(2-chloro-6-fluorophenyl)[1,2,4]triazolo[4,3-a]pyridin-7-yl)-N-cyclopropyl-5-fluoro-4-methylbenzamide]
6.00 to 6.60 | 6.00 to 6.60 | 7.00 to 7.60 | Cc1ccc(C(=O)NC2CC2)cc1-c1ccn2c(-c3ocnc3C)nnc2c1 [Example 57, N-cyclopropyl-4-methyl-3-(3-(4-methyl-1,3-oxazol-5-yl)[1,2,4]triazolo[4,3-a]pyridin-7-yl)benzamide]
